Laboratory results taken from the CheMixHub viscosity set.

Assay: xn = mol fraction of the nth substance listed

O=C1CCCN1C1CCCCC1 + CN1CCCC1=O
298.15 K, 100 kPa
Conditions	viscosity [mPa·s]
x2 = 0.0108	10.21
x2 = 0.0206	9.998
x2 = 0.026	9.92
x2 = 0.0415	9.645
x2 = 0.046	9.574
x2 = 0.06	9.318
x2 = 0.0748	9.054
x2 = 0.0872	8.858
x2 = 0.094	8.735
x2 = 0.2076	7.103
x2 = 0.302	5.992
x2 = 0.4096	4.942
x2 = 0.5043	4.171
x2 = 0.61	3.449
x2 = 0.7	2.937
x2 = 0.8042	2.436
x2 = 0.9004	2.038
x2 = 0.9083	2.005
x2 = 0.9175	1.967
x2 = 0.9328	1.93
x2 = 0.9426	1.884
x2 = 0.9516	1.854
x2 = 0.9616	1.837
x2 = 0.9708	1.795
x2 = 0.9798	1.775

CC1=CCC2CC1C2(C)C (stereo not drawn) + COC(C)(C)C
298.15 K, 101.33 kPa
Conditions	viscosity [mPa·s]
x2 = 0.0598	1.196
x2 = 0.128	1.091
x2 = 0.2151	0.9713
x2 = 0.357	0.8048
x2 = 0.4839	0.6762
x2 = 0.5691	0.603
x2 = 0.6514	0.5379
x2 = 0.7236	0.4866
x2 = 0.8254	0.4221
x2 = 0.9034	0.379
x2 = 0.9583	0.3576

CCCCCOC(C)=O + CCOc1ccccc1
Conditions	viscosity [mPa·s]
298.15 K, 101 kPa, x2 = 0.5	0.855

CC(C)(C)c1ccccc1 + CC(C)c1ccccc1
303.15 K, 101.3 kPa
Conditions	viscosity [mPa·s]
x2 = 0.039	0.9864
x2 = 0.1371	0.9507
x2 = 0.2661	0.9067
x2 = 0.4247	0.8551
x2 = 0.4906	0.8347
x2 = 0.6105	0.7984
x2 = 0.7457	0.7572
x2 = 0.8708	0.7224
x2 = 0.9592	0.6981

O=C1CCCN1C1CCCCC1 + CO
298.15 K, 100 kPa
Conditions	viscosity [mPa·s]
x1 = 0.0094	0.589
x1 = 0.0192	0.625
x1 = 0.0288	0.657
x1 = 0.0387	0.69
x1 = 0.0495	0.727
x1 = 0.053	0.743
x1 = 0.067	0.804
x1 = 0.0764	0.832
x1 = 0.0858	0.866
x1 = 0.0883	0.874
x1 = 0.094	0.91
x1 = 0.191	1.366
x1 = 0.2811	1.92
x1 = 0.3806	2.649
x1 = 0.48	3.553
x1 = 0.5758	4.526
x1 = 0.6836	5.807
x1 = 0.7845	7.171
x1 = 0.8973	8.652
x1 = 0.9035	8.749
x1 = 0.9182	8.971
x1 = 0.9294	9.118
x1 = 0.9448	9.356
x1 = 0.9517	9.496
x1 = 0.965	9.7
x1 = 0.9749	9.843
x2 = 0.0157	10

CC(C)(C)c1ccccc1 + CCCCCCCCCCCCCCCC
viscosity [mPa·s], 100 kPa
Conditions	x2 = 0.0661	x2 = 0.106	x2 = 0.2088	x2 = 0.3087	x2 = 0.3877	x2 = 0.5114	x2 = 0.621	x2 = 0.6915	x2 = 0.8377	x2 = 0.9225
298.15 K	1.236	1.297	1.442	1.566	1.675	1.87	2.073	2.235	2.597	2.821
308.15 K	1.065	1.111	1.235	1.343	1.427	1.584	1.749	1.868	2.138	2.298
318.15 K	0.928	0.968	1.072	1.17	1.247	1.382	1.513	1.606	1.804	1.914
